How the values were obtained:
[1] = system: LPS-induced ALI in mice; test: BAL cell count; type: in vivo
Description: (§1) Mice were anesthetized with ketamine (150 mg/kg) and acetylpromazine (15 mg/kg) intraperitoneally (i.p.) before the exposure of the trachea via neck incision and intubation with 20-guage catheter and the right internal jugular vein was exposed via right chest incision for PBS or b-NAD installation. The mice were randomly divided into groups. LPS or sterile saline was instilled intratracheally (i.t.) via a 20-gauge catheter. Simultaneously, mice received either b-NAD (5.4 mg/kg, equivalent to final calculated plasma concentration […] or PBS in the control group intravenously (i.v.) through the internal jugular vein (IJ). The animals were allowed to recover for 18 hr. EBD was given through the IJ 2 hr prior to termination of the experiment. At termination, bronchoalveolar lavage (BAL) was collected. BAL was 1ml of 10% HBSS through the endotracheal catheter immediately on sacrifice with aspiration. BAL was immediately centrifuged and processed. After the BAL, ethylenediaminetetraacetic acid (EDTA) was used to flush the lungs of blood via the right heart ventricle and the lungs were then harvested. BAL and lungs were collected and stored at −70° C. for evaluation of lung injury. […]

[2] = system: Rac1; test: G-LISA Rac activation assay in HPAEC; type: cell-based, human; conditions: 50 mM β-NAD, time course; basal by 30 min
Description: (§2) Protein extracts were separated by SDS-PAGE, transferred to nitrocellulose membrane and probed with specific antibodies. Horseradish peroxidase-conjugated goat anti-rabbit IgG antibody (Santa Cruz Biotechnology, Santa Cruz, Calif.) was used as the secondary antibody, and immunoreactive proteins were detected using enhanced chemiluminescence detection kit (ECL) according to the manufacturer's protocol (Amersham, Little Chalfont, UK). For quantification, immunoblot data were analyzed using NIH Image 1.63 software. Active Rac1 was determined using G-LISA Rac activation assay according to the manufacturer's recommendations (Cytoskeleton Inc., Denver, Colo.).

[3] = system: VE-cadherin-positive cell-cell junctions in HPAEC; test: VE-cadherin immunofluorescence of HPAEC monolayers; type: cell-based, human; conditions: 50 μM b-NAD, 30 minutes
Description: Immunostaining was performed as described (Kolosova et al., 2005, Circ Res 97(2):115-124). The DNA-binding, fluorescent dye 7-amino-actinomycin D (7AAD) was used to stain cell nuclei. The percentage of total cell surface area occupied by VE-cadherin-positive cell-cell junctions was quantitatively determined using Zeiss Microscope quantification Software.

[4] = system: LPS-induced ALI in mice; test: BAL total protein in LPS-induced lung injury; type: in vivo; conditions: β-NAD (i.v.) simultaneously with LPS (i.t.), 18 hr
Description: Female C57BL/6J mice (8-10 weeks old) weighing 20-25 g were purchased from Charles River Laboratory (Wilmington, Mass.). Animals were housed in plastic cages and had access to food and water. The animals were kept at room temperature and exposed to continuous cycles of 12 hr light and darkness.
as §1, with “LPS or sterile saline was instilled intratracheally (i.t.) via a 20-gauge catheter.” left out, “harvested.” for “harvested. BAL and lungs were collected and stored at −70° C. for evaluation of lung injury.”

[5] = system: Myeloperoxidase (MPO); test: Myeloperoxidase (MPO) activity and staining in lungs; type: in vivo, mice
Description: MPO is a hemoprotein that is abundantly expressed in polymorphonuclear leukocytes (neutrophils) and secreted during their activation. MPO assay was carried out according to the manufacturer's assay protocol (Cayman Chemicals). Lungs of vehicle, LPS or LPS/b-NAD treated mice were used for the MPO assay. Lungs (free of blood) were weighed and snap frozen in liquid nitrogen. The left lung was weighed and homogenized in the lysis buffer and then centrifuged (12,000×g, 30 min). The protein from the clear supernatant was estimated and normalized from different treatment and analyzed for the MPO levels by ELISA. Values represent mean±SEM (n=3).

[6] = system: LPS-induced ALI in mice; test: Evans Blue Dye-albumin (EBD) lung permeability; type: in vivo
Description: Mice were anesthetized with ketamine (150 mg/kg) and acetylpromazine (15 mg/kg) intraperitoneally (i.p.) before the exposure of the trachea via neck incision and intubation with 20-guage catheter and the right internal jugular vein was exposed via right chest incision for PBS or b-NAD installation. The mice were randomly divided into groups. LPS or sterile saline was instilled intratracheally (i.t.) via a 20-gauge catheter. Simultaneously, mice received either b-NAD (5.4 mg/kg, equivalent to final calculated plasma concentration […] or PBS in the control group intravenously (i.v.) through the internal jugular vein (IJ). The animals were allowed to recover for 18 hr. EBD was given through the IJ 2 hr prior to termination of the experiment. At termination, bronchoalveolar lavage (BAL) was collected. BAL was 1ml of 10% HBSS through the endotracheal catheter immediately on sacrifice with aspiration. BAL was immediately centrifuged and processed. After the BAL, ethylenediaminetetraacetic acid (EDTA) was used to flush the lungs of blood via the right heart ventricle and the lungs were then harvested. BAL and lungs were collected and stored at −70° C. for evaluation of lung injury.
Measurement of EBD concentration in the lungs was performed by injection of EBD (20 mg/kg) into the right internal jugular vein 2 hr before the termination of the experiment to assess the vascular leak. Lungs free of blood were weighed and snap frozen in liquid nitrogen. The left lung was weighed and homogenized, then incubated with two volumes of formamide (18 hr, 60° C.) and centrifuged (5000 g, 30 min, 20° C.). The extravasated EBD concentration (mg/g, lung) in the lung homogenate was calculated against a standard curve. In a separate experiment the EBD was injected into the right internal jugular vein as described above at 2 hrs prior to termination of the experiment and the left lung gross anatomy view was photographed with a Leica NCL150 Camera.

[7] = system: LPS-induced mortality in mice; test: LPS-induced mortality / survival; type: in vivo
Description: Mice were injected with β-NAD (100 mg/kg, i.p) or vehicle (saline, i.p) 10 min after LPS (20 mg/kg, i.p) challenge. As a treatment strategy, β-NAD was given twice a day (i.p) for 4 days. […]

[8] = system: myosin light chain (MLC) phosphorylation; test: MLC phosphorylation immunoblot in LPS-treated HPAEC; type: cell-based, human; conditions: LPS/β-NAD mixture, 4 hrs
Description: as §2

[9] = system: LPS-induced ALI in mice; test: Lung histology (H&E); type: in vivo
Description: Lungs perfused free of blood after perfusion with EDTA, were immersed in 5% buffered paraformaldehyde for 18 hr at 4° C. prior to histological evaluation by hematoxylin and eosin staining (H&E staining). The right lung lobes were used for consistency. H&E staining was done by deparafinizing and hydrating the slides to water. The slides were stained in Harris Hematoxylin for 15 min and Eosin for 30 sec. The slides were dehydrated, cleared and mounted with cytoseal.

**Q.** `NC(=O)C1=CN([C@@H]2O[C@H](COP(=O)(O)OP(=O)(O)OC[C@H]3O[C@@H](n4cnc5c(N)ncnc54)[C@H](O)[C@@H]3O)[C@@H](O)[C@H]2O)C=CC1` [β-NAD, beta-nicotinamide adenine dinucleotide] was tested. Which “total WBCs in BAL fluid” value ([1]; LPS treated mice, BAL at 24 hr) did it give?
**A.** Its value is “reduced total WBCs in BAL fluid”.

**Q.** And the “neutrophil count of BAL fluid” value ([1]; LPS/b-NAD compared to LPS only treated mice)?
**A.** The value was “decrease in neutrophil count”.

**Q.** What about the Rac1 activation [2] of the same compound?
**A.** The Rac1 activation was “dramatic β-NAD-dependent activation of Rac1 at early time points”.

**Q.** What about the “VE-cadherin recruitment to cell-cell junctions” value [3] of the same compound?
**A.** The value was “Appreciably more VE-cadherin was recruited to the area of cell-cell junctions”.

**Q.** And the “percentage of total cell-surface area occupied by VE-cadherin-positive cell-cell junctions (mean)” value ([3]; 20 cells per group, control 17.42%)?
**A.** Its value is 61.03%.

**Q.** What about the “LPS-induced BAL protein accumulation” value [4] of the same compound?
**A.** Its value is “significantly attenuated”.

**Q.** What about the “MPO staining of lung sections (neutrophil infiltration)” value ([5]; LPS with β-NAD treatment) of the same compound?
**A.** Its value is “attenuated the LPS-induced myeloperoxidase”.

**Q.** And the “MPO activity in lungs” value ([5]; LPS/b-NAD vs LPS challenged mice)?
**A.** Its value is “attenuated MPO activity”.

**Q.** What about the “MPO activity in lungs, β-NAD alone” value ([5]; β-NAD alone, no LPS) of the same compound?
**A.** Its value is “no effect”.

**Q.** And the “EBD leakage into lung parenchyma on gross examination” value ([6]; LPS 0.9 mg/kg i.t. and b-NAD 5.46 mg/kg, 24 hr)?
**A.** Its value is “minimal leakage”.

**Q.** And the “EBD-albumin in lung (average)” value ([6]; b-NAD/LPS treated mice)?
**A.** The value was 10.41 µg/g.

**Q.** And the “EBD-albumin in lung (average)” value ([6]; β-NAD/saline control (no LPS))?
**A.** The value was 6.54 µg/g.

**Q.** And the “mortality, LPS vs. LPS/β-NAD” value ([7]; 15 day study)?
**A.** The value was “significantly reduced morality”.

**Q.** And the “survival after LPS challenge” value ([7]; LPS 20 mg/kg i.p., β-NAD 100 mg/kg i.p. twice a day, 4 days)?
**A.** Its value is “recovered and lived longer”.

**Q.** And the “survival, β-NAD alone” value ([7]; β-NAD alone, no LPS)?
**A.** Its value is “no effect”.

**Q.** What about the “LPS-stimulated MLC phosphorylation” value [8] of the same compound?
**A.** Its value is “significantly inhibited”.

**Q.** And the “interstitial edema and infiltration of neutrophils (histology)” value ([9]; LPS/β-NAD vs LPS treated lung, 18 hr)?
**A.** Its value is “less prominent”.

**Q.** What about the “lung histology, β-NAD alone” value ([9]; β-NAD alone, no LPS) of the same compound?
**A.** Its value is “no effect”.
